Test results: the NIST ThermoML archive (doi:10.1021/acs.jced.9b00074)
± gives the expanded uncertainty stated by the source.

Details: 100 kPa, Liquid; for viscosity: Falling or rolling sphere viscometry; for mass density: Vibrating tube method

viscosity (293.15 K) | mass density (293.15 K) | viscosity (298.15 K) | mass density (298.15 K) | viscosity (303.15 K) | mass density (303.15 K) | viscosity (308.15 K) | mass density (308.15 K) | viscosity (313.15 K) | mass density (313.15 K) | viscosity (318.15 K) | mass density (318.15 K) | viscosity (323.15 K) | mass density (323.15 K) | viscosity (328.15 K) | mass density (328.15 K) | viscosity (333.15 K) | mass density (333.15 K) | Compound
3.017 ± 0.068 mPa·s | 935.88 ± 0.7 kg/m3 | 2.731 ± 0.061 mPa·s | 932 ± 0.69 kg/m3 | 2.488 ± 0.056 mPa·s | 928.08 ± 0.69 kg/m3 | 2.273 ± 0.051 mPa·s | 924.16 ± 0.69 kg/m3 | 2.087 ± 0.047 mPa·s | 920.24 ± 0.68 kg/m3 | 1.922 ± 0.043 mPa·s | 916.31 ± 0.68 kg/m3 | 1.776 ± 0.04 mPa·s | 912.38 ± 0.68 kg/m3 | 1.646 ± 0.037 mPa·s | 908.44 ± 0.68 kg/m3 | 1.53 ± 0.034 mPa·s | 904.5 ± 0.67 kg/m3 | C1C[C@@H]2[C@H]3CC[C@H](C3)[C@@H]2C1 [exo-tetrahydrodicyclopentadiene]
11.72 ± 0.25 mPa·s | 947.04 ± 0.57 kg/m3 | 9.6 ± 0.2 mPa·s | 943.08 ± 0.57 kg/m3 | 7.891 ± 0.17 mPa·s | 939.08 ± 0.57 kg/m3 | 6.564 ± 0.14 mPa·s | 935.03 ± 0.56 kg/m3 | 5.509 ± 0.12 mPa·s | 930.92 ± 0.56 kg/m3 | 4.657 ± 0.099 mPa·s | 926.76 ± 0.56 kg/m3 | 3.97 ± 0.084 mPa·s | 922.53 ± 0.56 kg/m3 | 3.409 ± 0.072 mPa·s | 918.24 ± 0.55 kg/m3 | 2.945 ± 0.063 mPa·s | 913.89 ± 0.55 kg/m3 | OC1CCCC1 [cyclopentanol]
3.75 ± 0.08 mPa·s | 901.57 ± 0.55 kg/m3 | 3.34 ± 0.071 mPa·s | 898 ± 0.54 kg/m3 | 2.997 ± 0.064 mPa·s | 894.43 ± 0.54 kg/m3 | 2.702 ± 0.057 mPa·s | 890.86 ± 0.54 kg/m3 | 2.45 ± 0.052 mPa·s | 887.29 ± 0.54 kg/m3 | 2.231 ± 0.047 mPa·s | 883.71 ± 0.54 kg/m3 | 2.039 ± 0.043 mPa·s | 880.13 ± 0.53 kg/m3 | 1.871 ± 0.04 mPa·s | 876.55 ± 0.53 kg/m3 | 1.722 ± 0.037 mPa·s | 872.96 ± 0.53 kg/m3 | CC12CC3CC(C1)CC(C)(C3)C2 [1,3-dimethyladamantane]
